Reference: patent publication US20150284360A1, “AMIDE DERIVATIVES OF ANILINE-RELATED COMPOUNDS AND COMPOSITIONS THEREOF” (C&C BIOPHARMA, LLC, priority 2014, published 2015)
In brackets after ≈: the same amount, converted by molar mass.

Key:
[1] = Solubility of a compound in water; type: physicochemical; conditions: compound added until saturated
Description: Solubility of a compound was obtained by adding the compound into water of known volume (e.g. 1 mL) until saturated, measuring the amount of the compound added, and obtaining the solubility of the compound in water (mg/mL) (Table 9).

[2] = In vitro conversion of prodrug Lys-CC30.2HCl to parent drug CC30 in rat plasma (HPLC-MS); type: in vitro ADME; conditions: formed from Lys-CC30•2HCl in rat plasma
Description: Lys-CC30.2HCl (2.53 mg) was dissolved in 200 μl of water to obtain an aqueous solution concentration of 12.6 mg/ml. 4 μl of the Lys-CC30.2HCl solution was thoroughly mixed with 100 μl of rat plasma. This mixture was divided into 10 aliquots (10 μl) placed in 1.5 ml tubes. One tube was placed on ice and was used as the 0 time point. The other 9 samples were placed in an incubator at 37° C. At 5, 10, 30, 60, 120, and 240 minutes, a tube was taken out from incubation and placed on ice to stop or slow down the reaction. The samples were diluted with water (50-fold), mixed, and pelleted by centrifugation at 4° C. and 14,000 rpm for 5 min. The supernatant (˜200-300 μl) was used for HPLC-MS analysis. The % conversion was calculated by dividing the peak area of the parent drug by the peak area of the prodrug at time 0, and then multiplying by 100 (Table 10).
After 60 minutes of incubation, almost half (44.7%) of the Lys-CC30.2HCl prodrug converted to CC30 (Table 10).

[3] = In vivo conversion of prodrug Lys-CC30.2HCl to parent drug CC30 in a rat after intravenous administration (plasma, HPLC-MS); set-up: species or system Sprague-Dawley rat; conditions: for HPLC-MS Peak Area of Parent drug, CC30 in the rat: rat plasma after Lys-CC30.2HCl 2 mg/kg intravenous
Description: A Male Sprague-Dawley rat weighing 200-220 g was used to study the pharmacokinetics of the prodrug Lys-CC30.2HCl. Food was prohibited for 12 hours before the experiment, but water was freely available. Blood samples (0.2 ml) were collected through orbital venous plexus blood into heparinized 1.5 ml polyethene tubes at 0, 2, 5, 10, 15, 20, 30, 45 and 60 minute time points after the intravenous administration of Lys-CC30.2HCl (2 mg/kg). The samples were immediately centrifuged at 3000 g for 10 minutes. The plasma obtained (100 μl) was stored at −20° C. until analyzed. Plasma Lys-CC30.2HCl and parent drug CC30 concentrations in the collected blood samples were analyzed by HPLC-MS.
The parent drug was detected in the rat for at least 60 minutes, whereas the prodrug was no longer detected after 20 minutes (Table 11)(FIG. 10B).

[4] = Cyclization in simulated gastric fluid (SGF), acidic condition; type: physicochemical; conditions: SGF pH=1.3 with pepsin, 37° C., 4 hours
Description: Simulated gastric fluid (SGF) was prepared by thoroughly mixing diluted hydrochloric acid (16.4 ml), water (800 ml), and 10 g of pepsin together, and then bring the volume up to 1000 ml with water (pH=1.3). Diluted hydrochloric acid was prepared by mixing 234 ml of concentrated hydrochloric acid with water to a final volume of 1000 ml. Lys-CC30.2HCl (2.53 mg) or CC30 were separately dissolved in 200 μl of water to obtain an aqueous solution concentration of 12.6 mg/ml. 4 μl of the Lys-CC30.2HCl solution and the CC30 solution were thoroughly mixed with 1 ml of SGF in separate tubes. The mixtures were placed in an incubator at 37° C. for 4 hours. The samples were diluted with water 50-fold, mixed, and pelleted by centrifugation at 4° C. and 14,000 rpm for 5 min. The supernatants (˜200-300 μl) were used for HPLC-MS analysis.

Row | SMILES | Solubility in Water [1] | also measured
1 | Cl.Cl.N=C(N)NCCC[C@H](N)C(=O)Nc1ccccc1NC(=O)CCCCCC(=O)Nc1cccc(Br)c1 [Arg-CC30•HCl] | 100 mg/mL | –
2 | Cl.NC(=O)C[C@H](N)C(=O)Nc1ccccc1NC(=O)CCCCCC(=O)Nc1cccc(Br)c1 [Asn-CC30•HCl] | 30 mg/mL | –
3 | Cl.N[C@@H](Cc1ccccc1)C(=O)Nc1ccccc1NC(=O)CCCCCC(=O)Nc1cccc(Br)c1 [Phe-CC30•HCl] | 10 mg/mL | –
4 | C[C@@H](O)[C@H](N)C(=O)Nc1ccccc1NC(=O)CCCCCC(=O)Nc1cccc(Br)c1.Cl [Thr-CC30•HCl] | 1350 mg/mL | –
5 | Cl.NC(CO)C(=O)Nc1ccccc1NC(=O)c1ccc(CNc2nccc(-c3cccnc3)n2)cc1 (centres unmarked) [Ser-MGCD0103•HCl] | >100 mg/mL | –
6 | Cl.NC(CO)C(=O)Nc1ccccc1NC(=O)c1ccc(CNC(=O)OCc2cccnc2)cc1 (centres unmarked) [Ser-MS-275•HCl] | >100 mg/mL | –
7 | Nc1ccccc1NC(=O)c1ccc(CNc2nccc(-c3cccnc3)n2)cc1 [MGCD0103, Mocetinostat, reference compound] | <1 mg/mL | –
8 | CC(C)[C@H](N)C(=O)Nc1ccccc1NC(=O)CCCCCC(=O)Nc1ccccc1.Cl [Val-PAOA•HCl] | >100 mg/mL | –
9 | Nc1ccccc1NC(=O)CCCCCC(=O)Nc1cccc(Br)c1 [CC30] | 0.006 mg/mL (≈ 14.8 µM) | HPLC-MS Peak Area of Parent Drug, CC30 ([2]; 37° C., 5 min): 880074; HPLC-MS Peak Area of Parent Drug, CC30 ([2]; 37° C., 10 min): 1131442; HPLC-MS Peak Area of Parent Drug, CC30 ([2]; 37° C., 30 min): 2039869; HPLC-MS Peak Area of Parent Drug, CC30 ([2]; 37° C., 60 min): 2762843; HPLC-MS Peak Area of Parent Drug, CC30 ([2]; 37° C., 120 min): 4280514; HPLC-MS Peak Area of Parent Drug, CC30 ([2]; 37° C., 240 min): 4438887; HPLC-MS Peak Area of Parent Drug, CC30 ([2]; time 0 min (on ice)): 617276; Time for which the parent drug was detected in the rat ([3]; after Lys-CC30.2HCl 2 mg/kg intravenous): at least 60 minutes; HPLC-MS Peak Area of Parent drug, CC30 in the rat ([3]; 0 min): 4792335; HPLC-MS Peak Area of Parent drug, CC30 in the rat ([3]; 2 min): 2994581; HPLC-MS Peak Area of Parent drug, CC30 in the rat ([3]; 5 min): 2162228; HPLC-MS Peak Area of Parent drug, CC30 in the rat ([3]; 10 min): 1225981; HPLC-MS Peak Area of Parent drug, CC30 in the rat ([3]; 15 min): 712348; HPLC-MS Peak Area of Parent drug, CC30 in the rat ([3]; 20 min): 425079; HPLC-MS Peak Area of Parent drug, CC30 in the rat ([3]; 30 min): 232663; HPLC-MS Peak Area of Parent drug, CC30 in the rat ([3]; 45 min): 199152; HPLC-MS Peak Area of Parent drug, CC30 in the rat ([3]; 60 min): 44686; Fraction that formed an inactive cyclized product [4]: 5%
10 | C[C@@H](O)[C@H](N)C(=O)Nc1ccccc1NC(=O)c1ccc(CNc2nccc(-c3cccnc3)n2)cc1.Cl [Thr-MGCD0103•HCl] | >100 mg/mL | –
11 | Cl.Cl.NCCC[C@H](N)C(=O)Nc1ccccc1NC(=O)CCCCCC(=O)Nc1cccc(Br)c1 [Orn-CC30•HCl] | 720 mg/mL | –
12 | Cl.NCC(=O)Nc1ccccc1NC(=O)CCCCCC(=O)Nc1cccc(Br)c1 [Gly-CC30•HCl] | 10 mg/mL | –
13 | Nc1ccccc1NC(=O)c1ccc(CNC(=O)OCc2cccnc2)cc1 [MS-275, Entinostat, reference compound] | 0.016 mg/mL (≈ 42.5 µM) | –
14 | Cl.NCC(=O)Nc1ccccc1NC(=O)c1ccc(CNc2nccc(-c3cccnc3)n2)cc1 [Gly-MGCD0103•HCl] | >100 mg/mL | –
15 | Cl.NCC(=O)Nc1ccccc1NC(=O)CCCCCC(=O)Nc1ccccc1 [Gly-PAOA•HCl] | 11 mg/mL | –
16 | CC(C)[C@H](N)C(=O)Nc1ccccc1NC(=O)c1ccc(CNC(=O)OCc2cccnc2)cc1.Cl [Val-MS-275•HCl] | >100 mg/mL | –
17 | Cl.Cl.N[C@@H](Cc1c[nH]cn1)C(=O)Nc1ccccc1NC(=O)CCCCCC(=O)Nc1cccc(Br)c1 [His-CC30•2HCl] | 130 mg/mL | –
18 | Cl.Cl.NCCCCC(N)C(=O)Nc1ccccc1NC(=O)c1ccc(CNc2nccc(-c3cccnc3)n2)cc1 (centres unmarked) [Lys-MGCD0103•2HCl] | >100 mg/mL | –
19 | CC(C)[C@H](N)C(=O)Nc1ccccc1NC(=O)CCCCCC(=O)Nc1cccc(Br)c1.Cl [Val-CC30•HCl] | 170 mg/mL | –
20 | Cl.NCC(=O)Nc1ccccc1NC(=O)c1ccc(CNC(=O)OCc2cccnc2)cc1 [Gly-MS-275•HCl] | 68 mg/mL | –
21 | Nc1ccccc1NC(=O)CCCCCC(=O)Nc1ccccc1 [PAOA, reference compound] | .033 mg/mL (≈ 101 µM) | –
22 | CC(C)C(N)C(=O)Nc1ccccc1NC(=O)c1ccc(CNc2nccc(-c3cccnc3)n2)cc1.Cl (centres unmarked) [Val-MGCD0103•HCl] | >100 mg/mL | –
23 | CC(C)C[C@H](N)C(=O)Nc1ccccc1NC(=O)CCCCCC(=O)Nc1cccc(Br)c1.Cl [Leu-CC30•HCl] | 50 mg/mL | –
24 | CC(O)C(N)C(=O)Nc1ccccc1NC(=O)c1ccc(CNC(=O)OCc2cccnc2)cc1.Cl (centres unmarked) [Thr-MS-275•HCl] | >100 mg/mL | –
25 | Cl.Cl.NCCCC[C@H](N)C(=O)Nc1ccccc1NC(=O)c1ccc(CNC(=O)OCc2cccnc2)cc1 [Lys-MS-275•2HCl] | >100 mg/mL | –
26 | Cl.Cl.NCCCC[C@H](N)C(=O)Nc1ccccc1NC(=O)CCCCCC(=O)Nc1ccccc1 [Lys-PAOA•2HCl] | >100 mg/mL | –
27 | O=C([O-])CCC(=O)Nc1ccccc1NC(=O)CCCCCC(=O)Nc1cccc(Br)c1.[Na+] [CC30-Suc-ONa] | 2 mg/mL | –
28 | Cl.N[C@@H](CO)C(=O)Nc1ccccc1NC(=O)CCCCCC(=O)Nc1cccc(Br)c1 [Ser-CC30•HCl] | 10 mg/mL | –
29 | N[C@@H](CCC(=O)[O-])C(=O)Nc1ccccc1NC(=O)CCCCCC(=O)Nc1cccc(Br)c1.[Na+] [CC30-Glu•Na] | >100 mg/mL | –
